Data from patent US11007214B2, “Compositions and methods for treating eye diseases” (CLOUDBREAK THERAPEUTICS LLC, priority 2019, dated 2021).
Read-outs that look alike come from different tables or passages of the source.

What was measured:
[1] = cited from earlier work; for Ability to form soluble complex with cholesterol in aqueous solution (in words): 37° C., CDs 1.0 × 10^−2 M; for Absorbance (600 nm), increase due to cholesterol dissolved by CDs: aqueous solution at 37° C., concentration of CDs 1.0 × 10^−2 M
[2] = Screening of CDs and CD derivatives for ability to dissolve cholesterol in water (HPLC); type: physicochemical; conditions: for Concentrations of Cholesterol in CDs Solution: 5 days at ambient, ND = not detectable
Protocol: Purpose: To determine the level of cholesterol that can be dissolved in water when 10 different CDs and their derivatives were added at three concentrations.
All CD solutions were prepared with starting 20% (w/v) solutions by accurately adding about 800 mg CDs in 4 milliliter water, 1% and 10% were diluted from this 20% solution to 2 mL for each sample preparation experiment.
Cholesterol was added accurately to all CD water solutions at about 40 mg/mL or about 80 mg per 2 mL. This amount of cholesterol was enough to fully saturate the CD solutions with white settlements or floating or both. All samples were conditioned at ambient by shaking using a rotator for 5 days.
After the equilibration with shaking for 5 days at ambient, the clear or semi-clear portion was filtered with 0.2 μm filter. 50 μL of the filtered solution was diluted with 450 μL methanol (10×) for HPLC analysis. NOVAPAK phenyl column (7.6 cm by 3.9 mm I.D.) was used with a mobile phase of acetonitrile: water (70:30) at a flow rate of 0.5 ml/min and detection at UV at 210 nm.

[3] = test system: Patients with Primary or Recurrent Pterygium
Protocol: A Phase 2a Multicenter, Randomized, Vehicle-Controlled, Dose Escalating Study was carried out to evaluate the Safety, Efficacy and Pharmacokinetics of Nintedanib Ophthalmic Solution in Patients with Primary or Recurrent Pterygium. The multicenter, randomized, double-masked, vehicle-controlled, parallel study was conducted with 28 days three times a day (TID) repeat ocular dosing of vehicle and 0.2% nintedanib, followed by 5-month post-dosing observation.
Pterygium patients often have meibomian gland atrophy and clinical signs and symptoms of MGD, including ocular pain, itchy, foreign body sensation, redness, sensitivity to light and […]. In the Phase II clinical trial, pterygia patients were asked 15 questions on ocular symptom, vision-related functioning and quality of life via Pterygium Symptom and Life Quality (PSLQ) questionnaires.
PSLQ analyses were performed for 4 average category scores; Overall, Ocular Symptoms, Vision-Related Functioning, and Quality of Life Impact.

[4] = test system: pterygium patients with dry eye or with no dry eye; assay: PSLQ ocular symptom score, further analysis by dry eye condition; type: in vivo, human; conditions: any timepoint
Description: These ocular symptoms are often observed in MGD patients. Scores of these symptoms were graded by patients as part of PSLQ questionnaires. (1) Dry eye patients vs. Non-dry eye patients (based upon patients' medical history) with the combined nintedanib-treated and vehicle-treated groups. […] The pterygium patients with dry eye condition was compared with pterygium patients with no dry eye condition. In this comparison, all pterygium patients with dry eye condition in the drug and vehicle treated group was combined and the same was done for pterygium patients with no dry eye condition. Number of data points for each group were N=17 for dry eye and N=18 for no dry eye. […] Pterygium patients with dry eye condition had higher baseline score and had bigger reduction from baseline of ocular symptom score during treatment period when compared to pterygium patients with no dry eye condition. (2) Nintedanib vs. Vehicle for dry eye patients (based upon patients' medical history).

| Compound | Ability to dissolve cholesterol in water (in words) [2] | Concentrations of Cholesterol in CDs Solution ([2]; CD 1% (w/v) in water) [ng/mL] | Ability to form soluble complex with cholesterol in aqueous solution (in words) [1] | Absorbance (600 nm), increase due to cholesterol dissolved by CDs [1] | further results |
| --- | --- | --- | --- | --- | --- |
| OC[C@H]1O[C@@H]2O[C@H]3[C@H](O)[C@@H](O)[C@@H](O[C@H]4[C@H](O)[C@@H](O)[C@@H](O[C@H]5[C@H](O)[C@@H](O)[C@@H](O[C@H]6[C@H](O)[C@@H](O)[C@@H](O[C@H]7[C@H](O)[C@@H](O)[C@@H](O[C@H]1[C@H](O)[C@H]2O)O[C@@H]7CO)O[C@@H]6CO)O[C@@H]5CO)O[C@@H]4CO)O[C@@H]3CO [ACD, alpha-cyclodextrin] | – | – | do not form soluble complexes with cholesterol | 0 | – |
| OC[C@H]1O[C@@H]2O[C@H]3[C@H](O)[C@@H](O)[C@@H](O[C@H]4[C@H](O)[C@@H](O)[C@@H](O[C@H]5[C@H](O)[C@@H](O)[C@@H](O[C@H]6[C@H](O)[C@@H](O)[C@@H](O[C@H]7[C@H](O)[C@@H](O)[C@@H](O[C@H]8[C@H](O)[C@@H](O)[C@@H](O[C@H]1[C@H](O)[C@H]2O)O[C@@H]8CO)O[C@@H]7CO)O[C@@H]6CO)O[C@@H]5CO)O[C@@H]4CO)O[C@@H]3CO [BCD, beta-cyclodextrin] | – | – | do not form soluble complexes with cholesterol | – | – |
| 2-hydroxypropyl-alpha-cyclodextrin [HP-ACD, reference compound] | no detectable cholesterol dissolving activity | – | – | – | – |
| 2-Hydroxypropyl-beta-cyclodextrin [2-HP-β-CD] | substantial ability to dissolve cholesterol | 10000 | weak ability | 0.01 | PSLQ scores compared to the baseline (in words) ([3]; 2-HP-β-CD-treated group): significant improvements; PSLQ Average Vision-Related Functioning Score, Mean ([3]; Baseline, N = 23, SD 0.80, Modified Intent-to-Treat Population): 0.57; PSLQ Average Vision-Related Functioning Score, Change from Baseline, Mean ([3]; Week 2, N = 23, SD 0.65, p-value 0.067 (one sample t-test)): −0.27; PSLQ Average Vision-Related Functioning Score, Change from Baseline, Mean ([3]; Week 4, N = 23, SD 0.65, p-value 0.003): −0.48; PSLQ Average Vision-Related Functioning Score, Change from Baseline, Mean ([3]; Week 8, N = 23, SD 0.62, p-value 0.004): −0.43; PSLQ Average Vision-Related Functioning Score, Change from Baseline, Mean ([3]; Week 16, N = 23, SD 0.56, p-value 0.08): −0.23; PSLQ Average Vision-Related Functioning Score, Change from Baseline, Mean ([3]; Week 24, N = 23, SD 1.1, p-value 0.617): −0.11; Concentrations of Cholesterol in CDs Solution ([2]; CD 10% (w/v) in water): 820000 ng/mL |
| COC(=O)c1ccc2c(c1)NC(=O)/C2=C(\Nc1ccc(N(C)C(=O)CN2CCN(C)CC2)cc1)c1ccccc1 [Nintedanib 0.2%, nintedanib] | – | – | – | – | PSLQ ocular symptom score, Nintedanib 0.2% vs Vehicle (in words) [4]: no statistically significant differences |
| OC[C@H]1O[C@@H]2O[C@H]3[C@H](O)[C@@H](O)[C@@H](O[C@H]4[C@H](O)[C@@H](O)[C@@H](O[C@H]5[C@H](O)[C@@H](O)[C@@H](O[C@H]6[C@H](O)[C@@H](O)[C@@H](O[C@H]7[C@H](O)[C@@H](O)[C@@H](O[C@H]8[C@H](O)[C@@H](O)[C@@H](O[C@H]9[C@H](O)[C@@H](O)[C@@H](O[C@H]1[C@H](O)[C@H]2O)O[C@@H]9CO)O[C@@H]8CO)O[C@@H]7CO)O[C@@H]6CO)O[C@@H]5CO)O[C@@H]4CO)O[C@@H]3CO [GCD, gamma-cyclodextrin] | – | – | do not form soluble complexes with cholesterol | 0 | – |

More lines, main results first:

| Ability to dissolve cholesterol in water (in words) [2] | Concentrations of Cholesterol in CDs Solution ([2]; CD 1% (w/v) in water) [ng/mL] | Compound | Ability to form soluble complex with cholesterol in aqueous solution (in words) [1] | Absorbance (600 nm), increase due to cholesterol dissolved by CDs [1] | further results |
| --- | --- | --- | --- | --- | --- |
| the best | 150000 | random methyl-beta-cyclodextrin [M-BCD] | – | – | – |
| the best | – | COC[C@H]1O[C@@H]2O[C@H]3[C@H](O)[C@@H](OC)[C@@H](O[C@H]4[C@H](O)[C@@H](OC)[C@@H](O[C@H]5[C@H](O)[C@@H](OC)[C@@H](O[C@H]6[C@H](O)[C@@H](OC)[C@@H](O[C@H]7[C@H](O)[C@@H](OC)[C@@H](O[C@H]8[C@H](O)[C@@H](OC)[C@@H](O[C@H]1[C@H](O)[C@H]2OC)O[C@@H]8COC)O[C@@H]7COC)O[C@@H]6COC)O[C@@H]5COC)O[C@@H]4COC)O[C@@H]3COC [DM-BCD, heptakis (2,6-di-O-methyl)-beta-cyclodextrin] | – | 0.336 | – |
| extremely low levels | – | 2-hydroxypropyl-gamma-cyclodextrin [HP-GCD, reference compound] | – | – | Concentrations of Cholesterol in CDs Solution ([2]; CD 10% (w/v) in water): 3000 ng/mL; Concentrations of Cholesterol in CDs Solution ([2]; CD 20% (w/v) in water): 11000 ng/mL |
| about half lower | 30000 | OC[C@H]1O[C@H](O[C@H]2[C@H](O)[C@@H](O)[C@@H](OC[C@H]3O[C@@H]4O[C@H]5[C@H](O)[C@@H](O)[C@@H](O[C@H]6[C@H](O)[C@@H](O)[C@@H](O[C@H]7[C@H](O)[C@@H](O)[C@@H](O[C@H]8[C@H](O)[C@@H](O)[C@@H](O[C@H]9[C@H](O)[C@@H](O)[C@@H](O[C@H]%10[C@H](O)[C@@H](O)[C@@H](O[C@H]3[C@H](O)[C@H]4O)O[C@@H]%10CO)O[C@@H]9CO)O[C@@H]8CO)O[C@@H]7CO)O[C@@H]6CO)O[C@@H]5CO)O[C@@H]2CO)[C@H](O)[C@@H](O)[C@@H]1O [6-AM-BCD, 6-O-alpha-maltosyl-beta-cyclodextrin] | – | – | – |
| – | 2000 | sulfobutylated beta-cyclodextrin [SBE-BCD] | – | – | Concentrations of Cholesterol in CDs Solution ([2]; CD 10% (w/v) in water): 30000 ng/mL; Concentrations of Cholesterol in CDs Solution ([2]; CD 20% (w/v) in water): 150000 ng/mL |
